Here are results for four compounds from publication PMC6248931 (Science Advances, 2018).

Test [1] relates to HIV. Particulars: human, in vivo; cited from earlier work.
The test system of a further test is HIV-1 pseudovirions. It counts as cell-based. Particulars: 1 μM.
For the next test, the target named is HIV HR2 peptide (Human immunodeficiency virus type 1, UniProt P03377). It counts as binding.
The subject of a further test is HIV HR1-HR2 interaction. The format is binding.
For the next test, the system named is influenza virus. Particulars: cited from earlier work.
The test system of test [2] is HIV. Particulars: cited from earlier work.

HIV HR2 peptide, sequence (P03377 633-666 limits assumed): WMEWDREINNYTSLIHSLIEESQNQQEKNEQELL

Consider `C=C(C)[C@@H]1CC[C@]2(C(=O)O)CC[C@]3(C)[C@H](CC[C@@H]4[C@@]5(C)CC[C@H](OC(=O)CC(C)(C)C(=O)O)C(C)(C)[C@@H]5CC[C@]43C)[C@@H]12` [bevirimat], for which, in the test with HIV [1], the “efficacy in clinical trials” value is recorded as “promising efficacy”.
Regarding `C=C(C)[C@@H]1CC[C@]2(C(=O)NCCCCCCCC(=O)N(CCCC3(C)N=N3)CC(=O)O)CC[C@]3(C)C(CCC4[C@@]5(C)CC[C@H](O)C(C)(C)C5CC[C@]43C)C12` (stereo partly shown) [Y20], the “inhibitory activity on the infectivity of HIV-1 pseudovirions” value with HIV-1 pseudovirions is recorded as “exhibited inhibitory activity”. In addition, the “binding to HIV-HR2 (in words)” value at HIV HR2 peptide is “binds tightly”. Further, in the test on HIV HR1-HR2 interaction, the “effect on HIV-HR1/HIV-HR2 affinity (in words)” value was “significantly reduced their affinity”.
For `CC1(C)CC[C@]2(C(=O)O)CC[C@]3(C)C(=CC[C@@H]4[C@@]5(C)CC[C@H](O)C(C)(C)[C@@H]5CC[C@]43C)[C@@H]2C1` [OA, oleanolic acid], the “inhibitory effect on influenza virus entry” value in the test on influenza virus is “significant inhibitory effect”. Further, the “inhibitory activity against HIV infection” value with HIV [2] was “show inhibitory activity”.
On to `C=C(C)[C@@H]1CC[C@]2(C(=O)O)CC[C@]3(C)[C@H](CC[C@@H]4[C@@]5(C)CC[C@H](O)C(C)(C)[C@@H]5CC[C@]43C)[C@@H]12` [BA, betulinic acid], for which, in the test with HIV [2], the “inhibitory activity against HIV infection” value is “show inhibitory activity”.
